According to the CheMixHub viscosity set:
“And” between values parts separate entries of the source, which are not always exact repeats. Equal values may be shown once.

C=Cc1ccccc1
101 kPa
Conditions | viscosity
298.15 K | 1.07 mPa·s and 0.695 mPa·s
308.15 K | 0.618 mPa·s
313.15 K | 0.573 mPa·s

BrC(Br)Br
viscosity
Conditions | 298 K | 298.15 K | 303.15 K | 308.15 K | 313.15 K | 318 K
101 kPa | – | – | 1.843 mPa·s and 1.861 mPa·s | 1.729 mPa·s and 1.746 mPa·s | 1.623 mPa·s and 1.641 mPa·s | –
101.3 kPa | 1.873 mPa·s | 1.912 mPa·s | 1.79 mPa·s | 1.684 mPa·s | – | –
101.33 kPa | – | 1.912 mPa·s and 1.977 mPa·s | 1.79 mPa·s and 1.857 mPa·s | 1.684 mPa·s and 1.733 mPa·s | – | 1.476 mPa·s

NCCOCCO
101.33 kPa
Conditions | viscosity [mPa·s]
298.15 K | 26.66
313.15 K | 13.43
323.15 K | 9.155

CC#N
Conditions | viscosity
293.15 K, 101.32 kPa | 0.3579 mPa·s
293.15 K, 101.33 kPa | 0.408 mPa·s and 0.383 mPa·s
297.92 K, 101 kPa | 0.3538 mPa·s
298.15 K, 100 kPa | 0.3479 mPa·s and 0.3462 mPa·s and 0.338 mPa·s
298.15 K, 101.3 kPa | 0.335 mPa·s and 0.346 mPa·s
298.15 K, 101.33 kPa | 0.39 mPa·s and 0.361 mPa·s and 0.345 mPa·s
301.67 K, 101 kPa | 0.3418 mPa·s
303 K, 100 kPa | 0.3485 mPa·s
303.15 K, 100 kPa | 0.3332 mPa·s and 0.3307 mPa·s
303.15 K, 101.3 kPa | 0.326 mPa·s
303.15 K, 101.33 kPa | 0.371 mPa·s and 0.333 mPa·s
303.61 K, 101 kPa | 0.3353 mPa·s
305.61 K, 101 kPa | 0.3294 mPa·s
308 K, 100 kPa | 0.3285 mPa·s
308 K, 101 kPa | 0.3205 mPa·s
308.15 K, 100 kPa | 0.3196 mPa·s and 0.3165 mPa·s
308.15 K, 101.3 kPa | 0.314 mPa·s and 0.306 mPa·s
308.15 K, 101.33 kPa | 0.319 mPa·s
308.76 K, 101 kPa | 0.3201 mPa·s
311.67 K, 101 kPa | 0.3112 mPa·s
313 K, 100 kPa | 0.3102 mPa·s
313.15 K, 100 kPa | 0.3071 mPa·s and 0.298 mPa·s
313.15 K, 101.3 kPa | 0.291 mPa·s
313.15 K, 101.32 kPa | 0.2974 mPa·s
313.15 K, 101.33 kPa | 0.337 mPa·s
318 K, 101 kPa | 0.2908 mPa·s
323.15 K, 100 kPa | 0.2849 mPa·s and 0.2624 mPa·s
323.15 K, 101.32 kPa | 0.2729 mPa·s
323.15 K, 101.33 kPa | 0.309 mPa·s

BrC(Br)C(Br)Br
101 kPa
Conditions | viscosity [mPa·s]
298.08 K | 9.687
308.11 K | 7.313
313.11 K | 6.406
